The record followed here is patent publication US20130053381A1, “2,4-DIOXO-1,4-DIHYDRO-2H-QUINAZOLIN-3-YL-SULFONAMIDE DERIVATIVES” (NOVARTIS AG, priority 2010, published 2013).

SMILES strings stand for the structures.

The test system of the first assay is OF1 mice. In words: Maximal electroshock test (MES Test). The following applies: Mus musculus, po; 50 mg/kg, p.o., pre-treatment time −1 h; read-out: %-Protection. It counts as in vivo. The method, boiled down:
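Compound given p.o. (typically 50 mg/kg) 1 h before tonic-clonic convulsions were induced via temporal electrodes (50 Hz, 18 mA, 0.2 s); seizure lasting 3 s or less counted as protection. Read-out is percent protected of five mice per condition; ED50 calculated, blood exposure sampled after shock.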
Background: Protection in the maximal electroshock model is a classic sign of anticonvulsant action.
As for `CCc1cc2[nH]c(=O)n(N(C(=O)OC(C)C)S(C)(=O)=O)c(=O)c2cc1-c1ccnn1C` [Example 2.12, Methanesulfonyl-[7-ethyl-6-(2-methyl-2H-pyrazol-3-yl)-2,4-dioxo-1,4-dihydro-2H-quinazolin-3-yl]-carbamic acid isopropyl ester], the responders at 50 mg/kg stood at 60%.
Still for that read-out and setting: as for `CCC(OC)c1cc2c(=O)n(N(C(=O)OCC(C)C)S(C)(=O)=O)c(=O)[nH]c2cc1C(F)(F)F` (centres unmarked) [Example 11.10, Methanesulfonyl-[6-(1-methoxy-propyl)-2,4-dioxo-7-trifluoromethyl-1,4-dihydro-2H-quinazolin-3-yl]-carbamic acid isobutyl ester], the figure is 100%; as for `CC(=O)N(n1c(=O)[nH]c2cc(C(F)(F)F)c(-n3ccnc3)cc2c1=O)S(C)(=O)=O` [Example 4.03, N-Acetyl-N-(6-imidazol-1-yl-2,4-dioxo-7-trifluoromethyl-1,4-dihydro-2H-quinazolin-3-yl)-methanesulfonamide], 40%; as for `CCCC(=O)N(n1c(=O)[nH]c2cc(C(F)(F)F)c(-n3ccnc3)cc2c1=O)S(C)(=O)=O` [Example 4.09, N-Butyryl-N-(6-imidazol-1-yl-2,4-dioxo-7-trifluoromethyl-1,4-dihydro-2H-quinazolin-3-yl)-methanesulfonamide], 40%.
Still for that read-out and setting: to `CC(C)COC(=O)N(n1c(=O)[nH]c2cc(C(F)(F)F)c(-c3ccnn3C)cc2c1=O)S(C)(=O)=O` [Example 1.06, Methanesulfonyl-[6-(2-methyl-2H-pyrazol-3-yl)-2,4-dioxo-7-trifluoromethyl-1,4-dihydro-2H-quinazolin-3-yl]-carbamic acid isobutyl ester] belongs 60%; to `CCCC(=O)N(n1c(=O)[nH]c2cc(C(F)(F)F)c(-c3ccnn3C(C)C)cc2c1=O)S(C)(=O)=O` [Example 5.03, N-Butyryl-N-[6-(2-isopropyl-2H-pyrazol-3-yl)-2,4-dioxo-7-trifluoromethyl-1,4-dihydro-2H-quinazolin-3-yl]-methanesulfonamide], 40%.
Regarding `CCCCOC(=O)N(n1c(=O)[nH]c2cc(C(F)(F)F)c([C@H]3CCCO3)cc2c1=O)S(C)(=O)=O` [Example 10.06, Methanesulfonyl-N—((R)-2,4-dioxo-6-tetrahydro-furan-2-yl-7-trifluoromethyl-1,4-dihydro-2H-quinazolin-3-yl)-carbamic acid butyl ester], the responders at 50 mg/kg is 40%.
Turning to `CCCCC(=O)N(n1c(=O)[nH]c2cc(C(F)(F)F)c(-n3ccnc3)cc2c1=O)S(C)(=O)=O` [Example 4.02, N-(6-Imidazol-1-yl-2,4-dioxo-7-trifluoromethyl-1,4-dihydro-2H-quinazolin-3-yl)-N-pentanoyl-methanesulfonamide], the responders at 50 mg/kg is 100%.
Take `CCC(=O)N(n1c(=O)[nH]c2cc(C(C)C)c(-c3ccnn3C)cc2c1=O)S(C)(=O)=O` [Example 3.12, N-[7-Isopropyl-6-(2-methyl-2H-pyrazol-3-yl)-2,4-dioxo-1,4-dihydro-2H-quinazolin-3-yl]-N-propionyl-methanesulfonamide]: the responders at 50 mg/kg worked out at 100%.
Same read-out and setting: as for `CSCCC(=O)N(n1c(=O)[nH]c2cc(C(F)(F)F)c(-c3ccnn3C(C)C)cc2c1=O)S(C)(=O)=O` [Example 5.13, N-[6-(2-Isopropyl-2H-pyrazol-3-yl)-2,4-dioxo-7-trifluoromethyl-1,4-dihydro-2H-quinazolin-3-yl]-N-(3-methylsulfanyl-propionyl)-methanesulfonamide], the figure is 40%; as for `CCC(=O)N(n1c(=O)[nH]c2cc(C(F)F)c(-c3ccnn3C(C)C)cc2c1=O)S(C)(=O)=O` [Example 6.05, N-[7-Difluoromethyl-6-(2-isopropyl-2H-pyrazol-3-yl)-2,4-dioxo-1,4-dihydro-2H-quinazolin-3-yl]-N-propionyl-methanesulfonamide], 80%; as for `CCCOC(=O)N(n1c(=O)[nH]c2cc(C(C)C)c(-c3ccnn3C)cc2c1=O)S(C)(=O)=O` [Example 3.20, [7-Isopropyl-6-(2-methyl-2H-pyrazol-3-yl)-2,4-dioxo-1,4-dihydro-2H-quinazolin-3-yl]-methanesulfonyl-carbamic acid propyl ester], 100%.
On to `CCC(=O)N(n1c(=O)[nH]c2cc(C(F)(F)F)c(-c3ccnn3CC)cc2c1=O)S(C)(=O)=O` [Example 15.02, N-[6-(2-Ethyl-2H-pyrazol-3-yl)-2,4-dioxo-7-trifluoromethyl-1,4-dihydro-2H-quinazolin-3-yl]-N-propionyl-methanesulfonamide], for which the responders at 50 mg/kg worked out at 20%.
Same read-out and setting: to `CCCCCC(=O)N(n1c(=O)[nH]c2cc(C(F)(F)F)c(C(CC)OC)cc2c1=O)S(C)(=O)=O` (centres unmarked) [Example 11.05, N-Hexanoyl-N-[6-(1-Methoxy-propyl)-2,4-dioxo-7-trifluoromethyl-1,4-dihydro-2H-quinazolin-3-yl]-methanesulfonamide] belongs 80%.
In the case of `CCC(OC)c1cc2c(=O)n(N(C(=O)OC)S(C)(=O)=O)c(=O)[nH]c2cc1C(F)(F)F` (centres unmarked) [Example 11.09, Methanesulfonyl-[6-(1-methoxy-propyl)-2,4-dioxo-7-trifluoromethyl-1,4-dihydro-2H-quinazolin-3-yl]-carbamic acid methyl ester], the responders at 50 mg/kg turned out to be 80%.
For `CCn1nccc1-c1cc2c(=O)n(NS(C)(=O)=O)c(=O)[nH]c2cc1C(F)(F)F` [Example 15.0, N-[6-(2-Ethyl-2H-pyrazol-3-yl)-2,4-dioxo-7-trifluoromethyl-1,4-dihydro-2H-quinazolin-3-yl]-methanesulfonamide], the responders at 50 mg/kg came to 0%.
On the same count and under the same terms, as for `CC(C)c1cc2[nH]c(=O)n(N(C(=O)CN3CCOCC3)S(C)(=O)=O)c(=O)c2cc1-c1ccnn1C` [Example 3.31, N-[7-Isopropyl-6-(2-methyl-2H-pyrazol-3-yl)-2,4-dioxo-1,4-dihydro-2H-quinazolin-3-yl]-N-(2-morpholin-4-yl-acetyl)-methanesulfonamide], the figure is 100%; as for `COC(=O)N(n1c(=O)[nH]c2cc(C(F)(F)F)c([C@H]3CCCO3)cc2c1=O)S(C)(=O)=O` [Example 10.04, Methanesulfonyl-N—((R)-2,4-dioxo-6-tetrahydro-furan-2-yl-7-trifluoromethyl-1,4-dihydro-2H-quinazolin-3-yl)-carbamic acid methyl ester], 20%; as for `CCCCCOC(=O)N(n1c(=O)[nH]c2cc(CC)c(-c3ccnn3C)cc2c1=O)S(C)(=O)=O` [Example 2.13, Methanesulfonyl-[7-ethyl-6-(2-methyl-2H-pyrazol-3-yl)-2,4-dioxo-1,4-dihydro-2H-quinazolin-3-yl]-carbamic acid pentyl ester], 20%.
Take `CCCOC(=O)N(n1c(=O)[nH]c2cc(CC)c(-c3ccnn3C)cc2c1=O)S(C)(=O)=O` [Example 2.06, Methanesulfonyl-[7-ethyl-6-(2-methyl-2H-pyrazol-3-yl)-2,4-dioxo-1,4-dihydro-2H-quinazolin-3-yl]-carbamic acid propyl ester]: the responders at 50 mg/kg is 60%.

The same assay, now with this note: Mus musculus, po; Dose: 15 mg/kg, p.o. (footnote c), pre-treatment time −1 h; read-out: %-Protection.
As to `CCOC(=O)CCC(=O)N(n1c(=O)[nH]c2cc(C(C)C)c(-c3ccnn3C)cc2c1=O)S(C)(=O)=O` [Example 3.06, 4-{[7-Isopropyl-6-(2-methyl-2H-pyrazol-3-yl)-2,4-dioxo-1,4-dihydro-2H-quinazolin-3-yl]-methanesulfonyl-amino}-4-oxo-butyric acid ethyl ester], the responders at 15 mg/kg is 100%.

The same assay, now with this note: Mus musculus, po; Dose: 25 mg/kg, p.o. (footnote b), pre-treatment time −1 h; read-out: %-Protection.
Turning to `CCC(=O)N(n1c(=O)[nH]c2cc(C(F)F)c(-c3ccnn3C(C)C)cc2c1=O)S(C)(=O)=O` [Example 6.05, N-[7-Difluoromethyl-6-(2-isopropyl-2H-pyrazol-3-yl)-2,4-dioxo-1,4-dihydro-2H-quinazolin-3-yl]-N-propionyl-methanesulfonamide], the responders at 25 mg/kg turned out to be 60%.

Staying with this assay, now noted: Mus musculus; dose of up to 50 mg/kg, p.o., 1 hour prior to induction of convulsions; read-out: %-Protection.
Regarding `COC(=O)N(n1c(=O)[nH]c2cc(C(F)F)c(-c3ccnn3C(C)C)cc2c1=O)S(C)(=O)=O` [[7-Difluoromethyl-6-(2-isopropyl-2H-pyrazol-3-yl)-2,4-dioxo-1,4-dihydro-2H-quinazolin-3-yl]-methanesulfonyl-carbamic acid methyl ester], the responders at 50 mg/kg is 0%.
Consider `CCn1nccc1-c1cc2c(=O)n(N(C(=O)C(C)(C)C)S(C)(=O)=O)c(=O)[nH]c2cc1C(F)F` [N-[7-Difluoromethyl-6-(2-ethyl-2H-pyrazol-3-yl)-2,4-dioxo-1,4-dihydro-2H-quinazolin-3-yl]-N-(2,2-dimethyl-propionyl)-methanesulfonamide], for which the responders at 50 mg/kg was 0%.
Same read-out and setting: to `CCCC(=O)N(n1c(=O)[nH]c2cc(CC)c(-c3ccnn3CC)cc2c1=O)S(C)(=O)=O` [N-Butyryl-N-[7-ethyl-6-(2-ethyl-2H-pyrazol-3-yl)-2,4-dioxo-1,4-dihydro-2H-quinazolin-3-yl]-methanesulfonamide] belongs 0%; to `CCn1nccc1-c1cc2c(=O)n(N(C(=O)CCSC)S(C)(=O)=O)c(=O)[nH]c2cc1C(F)F` [N-[7-Difluoromethyl-6-(2-ethyl-2H-pyrazol-3-yl)-2,4-dioxo-1,4-dihydro-2H-quinazolin-3-yl]-N-(3-methylsulfanyl-propionyl)-methanesulfonamide], 0%.
For the compound `CCCCCOC(=O)N(n1c(=O)[nH]c2cc(C(F)(F)F)c([C@H]3CCCO3)cc2c1=O)S(C)(=O)=O` [Methanesulfonyl-[(R)-2,4-Dioxo-6-tetrahydro-furan-2-yl-7-trifluoromethyl-1,4-dihydro-2H-quinazolin-3-yl]carbamic acid pentyl ester], the responders at 50 mg/kg came to 0%.
Take `CCn1nccc1-c1cc2c(=O)n(N(C(=O)OC)S(C)(=O)=O)c(=O)[nH]c2cc1C(F)F` [[7-Difluoromethyl-6-(2-ethyl-2H-pyrazol-3-yl)-2,4-dioxo-1,4-dihydro-2H-quinazolin-3-yl]-methanesulfonyl-carbamic acid methyl ester]: the responders at 50 mg/kg is 0%.

The same assay, now with this note: single 50 mg/kg p.o. dose; 30 min after treatment, MES Test.
For the compound `CCCCC(=O)N(n1c(=O)[nH]c2cc(C(F)(F)F)c(-n3ccnc3)cc2c1=O)S(C)(=O)=O` [Example 4.02, N-(6-Imidazol-1-yl-2,4-dioxo-7-trifluoromethyl-1,4-dihydro-2H-quinazolin-3-yl)-N-pentanoyl-methanesulfonamide], the “%-seizure protection” value was determined as 100%.
